Results: PMC7072352, “Venetoclax, a BCL-2 Inhibitor, Enhances the Efficacy of Chemotherapeutic Agents in Wild-Type ABCG2-Overexpression-Mediated MDR Cancer Cells” (Cancers, 2020)

Molecular target: T1, ABCG2 (breast cancer resistance protein, BCRP) (Homo sapiens, UniProt Q9UNQ0)
T1 construct: wild-type ABCG2 (R482) in overexpressing cell membranes
T1 sequence (Q9UNQ0 1-655): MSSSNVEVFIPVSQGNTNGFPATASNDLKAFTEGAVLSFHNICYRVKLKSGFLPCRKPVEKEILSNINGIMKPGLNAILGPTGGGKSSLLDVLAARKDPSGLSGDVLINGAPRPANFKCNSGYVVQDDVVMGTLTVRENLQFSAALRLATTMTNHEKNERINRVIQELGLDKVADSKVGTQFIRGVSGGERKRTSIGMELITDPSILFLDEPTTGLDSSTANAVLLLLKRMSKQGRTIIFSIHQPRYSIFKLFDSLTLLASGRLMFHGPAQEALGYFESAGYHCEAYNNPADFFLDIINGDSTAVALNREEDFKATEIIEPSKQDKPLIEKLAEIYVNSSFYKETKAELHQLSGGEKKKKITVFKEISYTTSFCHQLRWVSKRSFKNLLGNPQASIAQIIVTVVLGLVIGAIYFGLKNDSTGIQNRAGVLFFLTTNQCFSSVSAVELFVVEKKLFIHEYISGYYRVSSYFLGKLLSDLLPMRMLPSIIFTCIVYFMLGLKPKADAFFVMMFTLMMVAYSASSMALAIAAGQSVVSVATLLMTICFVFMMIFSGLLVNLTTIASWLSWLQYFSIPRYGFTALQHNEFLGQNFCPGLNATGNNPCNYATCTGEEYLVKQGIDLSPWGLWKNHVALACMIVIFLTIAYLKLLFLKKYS
Assay: vanadate-sensitive ATPase assay in ABCG2-overexpressing cell membranes; [3H]-mitoxantrone accumulation and efflux in cells
Format: biochemical

## CC1(C)CCC(CN2CCN(c3ccc(C(=O)NS(=O)(=O)c4ccc(NCC5CCOCC5)c([N+](=O)[O-])c4)c(Oc4cnc5[nH]ccc5c4)c3)CC2)=C(c2ccc(Cl)cc2)C1 [venetoclax]
  IC50: 4.78 µM
